Literature values as cited in US6375930B2, “Membrane incorporation of texaphyrins” (Board of Regents, The University of Texas System, priority 1996, dated 2002).

Assays:
[1] = require hydrophobic vehicles for administration
[2] = Levy, Semin. Oncol. 1994

Row | solubility in aqueous solutions [1] | duration of cutaneous photosensitivity [2] | Substance
1 | insoluble | a few days | benzoporphyrin derivative [BPD verteporfin]
2 | – | up to 6 weeks | porfimer sodium
3 | insoluble | – | tin purpurin
